Data from ChEMBL document CHEMBL3639303, “Organic compounds” (2013).

Target: T1, Renin (Homo sapiens, UniProt P00797)
T1 sequence (P00797 whole entry): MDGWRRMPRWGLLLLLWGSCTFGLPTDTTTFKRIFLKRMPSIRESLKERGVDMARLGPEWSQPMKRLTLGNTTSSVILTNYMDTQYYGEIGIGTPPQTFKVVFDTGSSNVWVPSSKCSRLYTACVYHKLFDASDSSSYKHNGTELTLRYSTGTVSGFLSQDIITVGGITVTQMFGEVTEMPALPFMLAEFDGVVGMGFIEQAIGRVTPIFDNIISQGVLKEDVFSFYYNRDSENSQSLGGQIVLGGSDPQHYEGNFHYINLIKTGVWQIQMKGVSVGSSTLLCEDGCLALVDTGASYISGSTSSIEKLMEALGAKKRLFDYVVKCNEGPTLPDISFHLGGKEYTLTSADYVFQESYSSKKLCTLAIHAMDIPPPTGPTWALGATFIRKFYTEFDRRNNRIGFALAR
Test: FRET Assay: Inhibition activity of renin using FRET assay.

Row | Compound | IC50 [nM]
1 | CCOC[C@@H](CC(C)C)NC(=O)[C@@H]1CNC[C@H](C(=O)N(CC(C)C)c2cc(OC)c(C(C)C)cn2)C1 | 0.8
2 | CCOC[C@@H](CC(C)C)NC(=O)[C@@H]1CNC[C@H](C(=O)N(c2ccc(C(C)C)cn2)C2CC2)[C@@H]1O | 2
3 | CCOC[C@@H](CC(C)C)NC(=O)[C@@H]1CNC[C@H](C(=O)N(c2cc(OCC)c(CC)cn2)C2CC2)C1 | 0.6
4 | CCOC[C@@H](CC(C)C)NC(=O)[C@@H]1CNC[C@H](C(=O)N(c2ccc(C(C)(C)OC)cn2)C2CC2)[C@@H]1O | 2
5 | CCOC[C@@H](NC(=O)[C@@H]1CNC[C@H](C(=O)N(c2cc(OC)c(C(C)C)cn2)C2CC2)C1)C1CCCCC1 | 0.3
6 | CCOC[C@@H](CC(C)C)NC(=O)[C@@H]1CNC[C@H](C(=O)N(c2cc(OC)c(C(C)C)cn2)C2CC2)C1 | 0.9
7 | CCOC[C@H](NC(=O)[C@@H]1CNC[C@H](C(=O)N(c2ccc(C(C)C)cn2)C2CC2)C1)C(C)C | 0.9
8 | CCOC[C@@H](CC(C)C)NC(=O)[C@@H]1CNC[C@H](C(=O)N(c2cc(OCCCOC)c(C(C)C)cn2)C2CC2)[C@@H]1O | 0.4
